# Data as given in patent US20140315786A1, “USE OF INTRACELLULAR ENZYMES FOR THE RELEASE OF COVALENTLY LINKED BIOACTIVES” (Catabasis Pharmaceuticals, Inc., priority 2011, published 2014).
# Legend:
# IL-1β = IL-1β transcript levels in LPS-stimulated RAW264.7 macrophages; assay type: cell-based; conditions: Mus musculus; RAW264.7, LPS 100 ng/ml; linked bioactive
# Protocol: RAW264.7 macrophages were seeded at a density of 100,000 cells/well in a 96-well plate in DMEM supplemented with 10% FBS and penicillin:streptomycin. 16 hours later, medium was aspirated and replaced with 90 μL/well of serum-free DMEM. Linked bioactives were brought up in 100% ethanol to a concentration of 100 mM and then diluted 1:100 in 100% FBS for a stock solution consisting of 1 mM compound and 1% ethanol. These stock solutions were then diluted 1:10 in FBS supplemented with 1% ethanol to generate a 100 μM of the linked bioactives. 10 μL was then added to the RAW246.7 cells to generate final concentrations 10 μM of the linked bioactives or 10 μM each bioactive, along with vehicle only control. The linked bioactives were allowed to pre-incubate for 2 hours before stimulation of 100 ng/ml LPS (10 μL of 1 μg/ml LPS was added to each well). Following 3 hours of LPS stimulation, cells were washed once in 1×PBS, aspirated dry, and flash frozen in liquid nitrogen. RNA was then isolated and converted to cDNA using the Cells to cDNA kit (AMBION®) according to the manufacturer's protocol. IL-1β transcript levels were then measured using Taqman primer/probe assay sets (APPLIED BIOSYSTEMS®), normalized to GAPDH using the deltaCt method, and the data expressed relative to vehicle only control.
# [1] = Sprague Dawley rat brain homogenate promoted cleavage of a linked bioactive, with and without FAAH inhibitor URB597; assay type: in vitro ADME; conditions: FIG. 1; 5 μM inhibitor
# Protocol: The purpose of this assay was to measure the ability of Sprague Dawley rat brain homogenate to hydrolyze a linked bioactive in the presence of fatty acid amide hydrolase inhibitor URB597 (obtained from Cayman Chemical, cat #10046. Brains were harvested from male Sprague Dawley rats and were homogenized 1:4 (grams:mL) in 20 mM 4-(2-hydroxyethyl)-1-piperazineethanesulfonic acid, pH 7.0. Total protein in the rat brain homogenate was determined by a Bradford protein assay.
# Linked bioactive was dissolved in methanol at 50 mM. Hydrolysis reactions were conducted with 500 μM of compound in a reaction buffer of 50 mM Hcpcs, 1 mM EDTA, 0.1% Triton X100, pH 8.0, and 1 mg/mL total protein from rat brain homogenate. Reactions were incubated at 37° C. The total reaction volume was 500 μL. Reactions were quenched by transferring 30 μL of reaction into 200 μL of acetonitrile containing 100 ng/mL of internal standard compound, after 0 hours, 1 hour, 2 hours, and 3 hours. […]
# Generally, levels of parent linked bioactive and hydrolysis products were measured using an Agilent 1260 HPLC and an Agilent 6410 triple quadrapole mass spectrometer with an electrospray source and using multiple reaction monitoring and relevant mass/charge transitions. […] Injection volumes and flow rates were determined for each specific parent linked bioactive and relative hydrolysis products. […]
# FAAH-1 = target: T1, FAAH-1 (Homo sapiens, UniProt O00519); assay: Hydrolysis in homogenate of COS-7 cells overexpressed with FAAH-1; assay type: biochemical; conditions: 5 μM inhibitor
# T1 construct: expressed in transfected cells; host or cells: COS-7
# T1 sequence (O00519 1-579): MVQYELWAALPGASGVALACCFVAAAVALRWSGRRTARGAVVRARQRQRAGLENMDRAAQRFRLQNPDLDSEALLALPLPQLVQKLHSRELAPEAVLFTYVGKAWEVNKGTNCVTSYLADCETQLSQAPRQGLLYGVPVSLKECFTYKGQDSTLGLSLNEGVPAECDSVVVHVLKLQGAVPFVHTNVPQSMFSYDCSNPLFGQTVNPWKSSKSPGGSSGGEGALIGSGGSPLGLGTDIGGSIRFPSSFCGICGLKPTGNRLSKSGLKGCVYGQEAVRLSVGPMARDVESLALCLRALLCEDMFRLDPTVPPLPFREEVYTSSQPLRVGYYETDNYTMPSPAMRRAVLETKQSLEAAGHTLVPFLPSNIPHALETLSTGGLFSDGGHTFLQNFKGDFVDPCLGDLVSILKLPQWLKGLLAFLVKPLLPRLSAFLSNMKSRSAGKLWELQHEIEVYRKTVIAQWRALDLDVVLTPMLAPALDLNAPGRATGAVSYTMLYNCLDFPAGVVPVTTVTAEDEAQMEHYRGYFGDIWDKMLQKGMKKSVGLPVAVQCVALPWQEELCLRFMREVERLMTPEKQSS
# Protocol: (§1) Hydrolysis experiments using COS-7 cells overexpressed with either FAAH-1 or FAAH-2. […] The next day, cells were transfected, in duplicate, with 10 μg Vector control, flag-FAAH-1 or flag-FAAH-2 plasmids using Lipofectamine 2000 (Invitrogen) according to the manufacturer's protocol. 24 hours post transfection, cells were washed 1× in cold PBS, aspirated dry, and then scraped off the plate in the presence of 0.6 mL reaction buffer (50 mM HEPES, pH 9.0; 1 mM EDTA). Cells were then homogenated using a VWR VDI 12 Adaptable Homogenizer, on ice for 1 minute, and the sample was then clarified by centrifugation at 6,000 g for 5 minutes. The supernatant of this homogenated fraction was then used for FAAH hydrolysis assays. […] Gel densitometry was performed and the % FAAH extracted in each successive lysis conditions was determined according to standard procedures.
# (§2) The following hydrolysis experiments were performed using COS-7 cells containing overexpressed FAAH-1 or FAAH-2. […] Briefly, the hydrolysis experiments were carried out in Eppendorf tubes using procedures similar to the one described above. […] At time=0, 1, and 3 h, the protein was precipitated with acetonitrile.
# FAAH-2 = target: T2, FAAH-2 (Homo sapiens, UniProt Q6GMR7); assay: Hydrolysis in homogenate of COS-7 cells overexpressed with FAAH-2; assay type: biochemical; conditions: 5 μM inhibitor
# T2 construct: expressed in transfected cells; host or cells: COS-7
# T2 sequence (Q6GMR7 1-532): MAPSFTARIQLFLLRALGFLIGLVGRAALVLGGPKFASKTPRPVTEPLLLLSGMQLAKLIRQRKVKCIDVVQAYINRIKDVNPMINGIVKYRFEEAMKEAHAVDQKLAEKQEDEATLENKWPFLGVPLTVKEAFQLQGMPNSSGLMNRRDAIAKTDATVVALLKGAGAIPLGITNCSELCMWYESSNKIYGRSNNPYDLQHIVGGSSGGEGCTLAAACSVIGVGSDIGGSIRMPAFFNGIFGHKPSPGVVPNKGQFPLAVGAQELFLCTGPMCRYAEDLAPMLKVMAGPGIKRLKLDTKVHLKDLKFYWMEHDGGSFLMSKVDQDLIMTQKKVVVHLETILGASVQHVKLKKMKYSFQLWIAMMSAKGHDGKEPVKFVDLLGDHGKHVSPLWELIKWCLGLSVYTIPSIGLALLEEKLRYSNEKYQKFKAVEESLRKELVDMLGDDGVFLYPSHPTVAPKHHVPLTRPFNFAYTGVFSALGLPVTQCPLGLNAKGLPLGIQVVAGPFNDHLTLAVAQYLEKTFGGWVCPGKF
# Protocol: as §1, §2
IC50 (IL-1β) [µM],Compound,effect of FAAH inhibitor on hydrolysis of the linked bioactive by rat brain homogenate [1],"effect of inhibitor on rate of hydrolysis of compound I-1, FAAH-1 (FAAH-1; FIG. 9A)","effect of inhibitor on rate of formation of DHA from compound I-1, FAAH-1 (FAAH-1; FIG. 9C)","effect of inhibitor on hydrolysis of compound I-1, FAAH-2 (FAAH-2; FIG. 9B)","effect of inhibitor on formation of DHA from compound I-1, FAAH-2 (FAAH-2; FIG. 9D)"
10,"CC/C=C\C/C=C\C/C=C\C/C=C\C/C=C\C/C=C\CCC(=O)N[C@@H](C)C(=O)O[C@H](C)[C@H](NC(=O)CC/C=C\C/C=C\C/C=C\C/C=C\C/C=C\C/C=C\CC)C(=O)OC [VI-2, (2S,3R)-2-((4Z,7Z,10Z,13Z,16Z,19Z)-docosa-4,7,10,13,16,19-hexaenoylamino)-3-[(S)-2-((4Z,7Z,10Z,13Z,16Z,19Z)-docosa-4,7,10,13,16,19-hexaenoylamino)-propionyloxy]-butyric acid methyl ester]",–,–,–,–,–
–,NC(=O)c1cccc(-c2cccc(OC(=O)NC3CCCCC3)c2)c1 [URB597],essentially eliminated,significantly reduced,significantly inhibited,significantly reduced,more effective in reducing the formation of DHA
